This note sets out measurements from PMC5307958 (Scientific Reports, 2017).

Where a SMILES comes first, the peptide text is derived from it. Bridges are numbered along the chain shown (N, C = ends).

This assay relates to slo-1(+) worm BK channel gene expressed in slo-1(null) worms. Briefly: C. elegans crawl speed, slo-1(+) rescue on slo-1 null background. In kind it is in vivo, Caenorhabditis elegans. To be noted: 750 μM LS3, 30 min; transgenic slo-1(+) on slo-1(null) background; vs. slo-1(null): p < 0.001, N = 78–162. As for the experimental part: Worms were cultivated at 20 °C as described with OP50 bacteria. Worms cultured on plates contaminated with fungi or other bacteria were excluded from this study. The reference wild-type strain was N2 Bristol. The reference slo-1(null) strain and background for transgenic strains was NM1968, harboring the previously characterized null allele, js379[29]. Multi-site gateway technology (Invitrogen) was used to construct plasmids. […] of the native slo-1 promoter (Pslo-1) and the traditional unc-54 UTR were used in combination with slo-1a(cDNA)::mCherry for a rescue construct. To test rescue with the human BK channel, an hslo(ZERO isoform, cDNA)::mCherry version was constructed. The slo-1(+) and hslo(+) plasmids were injected at a concentration of 20 and 10 ng/μl, respectively. The co-injection reporter PCFJ90 (1.25 ng/μl) was used to ensure proper transformation of the arrays. As such, JPS345 carried vxEx345, an extrachromosomal array containing [Pslo-1::slo-1::mCherry::unc-54UTR,Pmyo-2::mCherry::unc-54UTR]. JPS340 carried […], an extrachromosomal array containing [Pslo-1::hslo::mCherry::unc-54UTR,Pmyo-2::mCherry::unc-54UTR].
Age-matched day one adults were cleaned of bacteria by letting them crawl around on an unseeded plate and then moved into a puddle of NGM or peptide dissolved in NGM on another unseeded plate. […]

On to `CC(C)C[C@@H]1NC(=O)CNC(=O)[C@H](CCCNC(=N)N)NC(=O)[C@H](CCCNC(=N)N)NC(=O)[C@@H](N)CSSC[C@@H](C(=O)O)NC(=O)[C@H](C(C)C)NC(=O)[C@H](CCC(N)=O)NC(=O)[C@H](C(C)C)NC1=O` [LS3] (H-CRRGLVQVC-OH; disulfide 1-9; N-terminus and C-terminus assumed), for which the “LS3-induced slowing response (reduction in crawl speed)” value is given as “rescued”.
